Two compounds from patent US8796302B2 (priority 2004, dated 2014) can be followed below.

Assay [1] has as its system PGE2. The assay can be described thus: PGE2 release (EIA) after LPS. It counts as cell-based, rat.
Assay [2] has as its system TNFα. The assay can be described thus: Serum and liver TNFα (ELISA) in LPS/GalN endotoxic shock. In kind it is in vivo, mouse. As for the experimental part:
Blood was collected from the eye while the mice were anesthetized, and then perfused with saline. Perfused liver samples were collected and frozen at −70° C. The blood samples were stored at 4° C. overnight and then centrifuged at 1500×g at 4° C. for 15 min. Serum was collected and stored at −70° C. for ALT, and TNFα ELISA assays. The frozen liver samples were homogenized in 10 mg/ml cold lysis buffer (20 mM Tris, 0.25 M sucrose, 2 mM EDTA, 10 mM EGTA, 1% Triton X-100 and protein cocktail inhibitor), and then centrifuged at 35,000×g for 40 min. The supernatant was then collected for protein assay using BCA Protein Assay Reagent Kit (Prod#23227, PIERCE), and ELISA for TNFα.
The levels of TNFα in the serum and liver were determined as in Example 1.
TNFα, an important factor that plays an important role in sepsis, was studied as a mechanism of the protective effect of DM in LPS/GalN-challenge mice. DM (12.5 mg/kg, […].) was administered to mice, followed by LPS/GalN challenge 30 min later. Serum and liver TNFα level was assessed using ELISA at the indicated time points.
A general note: In an ELISA, binding on a coated surface is turned into a signal by an enzyme label.

Assay [3] deals with TNFα. Briefly: TNFα production in neuron-glia cultures of PHOX+/+ and PHOX−/− mice. It counts as cell-based, mouse. The settings on record: DM 10^−14 M. On the procedure: (§1) Neurotoxicity was assessed by DA uptake as described in Example 1. TNFα production was measured by ELISA and iROS was determined by DCFDA as in Example 5. Results are expressed as a percentage of the control culture in FIG. 7A, pg/ml in FIG. 7B, and difference from control in FIG. 7C, respectively, and are the mean±S.E.M. of five individual experiments with triplicates in each experiment. *, P<0.05 compared with LPS culture.
(§2) The rat and mouse ventral mesencephalic neuron-glia cultures were prepared as in Example 1. […] DA neurotoxicity was measured by using the [^3H] DA uptake assay as in Example 1. The data are expressed as the percent of the control cultures and are the mean±SEM. The release of TNFα was measured with a commercially available enzyme-linked immunosorbent assay kit. *P<0.05, **P<0.01, compared to control. The amount of TNFα was measured as in Example 2.

Assay [4] relates to dopaminergic neurons in PHOX^+/+ and PHOX^−/− mouse neuron-glia cultures. Briefly: [3H]DA uptake in neuron-glia cultures of PHOX+/+ and PHOX−/− mice. In kind it is cell-based. The settings on record: DM 10^−14 M, LPS 10 ng/ml. On the procedure:
To further study the role of ROS in DM-elicited neuroprotection, neuron-glia cultures were prepared from NADPH oxidase-deficient (PHOX^−/−) and wild-type (PHOX^+/+) mice.
as §1, §2

Assay [5] deals with CD-1 mice given LPS/GalN. Briefly: Survival in LPS/GalN endotoxic shock. In kind it is in vivo, mouse. The settings on record: for Rate of survival % / No. of animals survived: 12 hrs; for Rate of survival: 30 min before and 2, 4 hr after LPS/GalN; for Rate of survival / Survived animal: 12 hours. On the procedure:
Animal studies were performed in accordance with National Institutes of Health Guidelines and with the approval of the Institute's Animal Care and Use Committee, and followed NIH guidelines. Male, CD-1 mice (6-week-old) were purchased from Charles River laboratories, fed on a standard diet and with tap water ad libitum for two weeks. Environmental conditions were standardized, including a room temperature of 21° C. and 12 hours artificial lighting. Mice were fasted 12 hrs before use.
Endotoxic shock was induced in the mice by administering a single intraperitoneal dose of lipopolysaccharide/D-(+/−)Glactosomine (Sigma, St. Louis, Mo.) (LPS/GalN) (20 μg/700 mg/kg) in saline. To test whether DM has protective effects on septic shock, varying concentrations (6.25, 12.5 and 25 mg/kg) of DM were injected into the mice subcutaneously 30 min before, and 2, and 4 hr after the injection of LPS/GalN. Control mice received the same amount of saline. At different time points, the animals were killed, and serum and liver samples were collected.
To examine the therapeutic effects of DM, animals were treated with […] DM at 30 min before LPS/GalN injection, and 30, 60 and 120 min after LPS/GalN administration. Serum ALT was measured to evaluate the therapeutic effects of the DM. Survival rate was evaluated within 12 hours after endotoxin administration.
Endotoxic shock were induced in mice in the same was as Example 16. The mice were given LPS/GalN (20 μg/700 mg/kg, ip) with or without the administration of DM (10 mg/kg, 1 μg/kg and 100 pg/kg, s.c.) 30 min before LPS/GalN. The survival rate of the animals was evaluated 12 hrs after LPS/GalN treatment.

The subject of assay [6] is GDNF. The assay can be described thus: GDNF mRNA (real-time PCR) in primary astroglia. In kind it is cell-based, rat. The settings on record: VPA 0.6 mM. As for the experimental part:
Rat primary astroglias were exposed to 0.6 in M VPA for various times ranging from 6 to 48 hours. Total RNA was extracted from cells by Tri reagent (Sigma) and purified with RNeasy columns (Qiagen, Valencia, Calif.). Expression of the selected genes was quantified using real-time RT-PCR analysis. Briefly, total RNA was reverse transcribed with MuLV reverse transcriptase and oligo-dT primers. The forward and reverse primers for selected genes were designed using Primer Express software. The SYBR green DNA PCR kit (Applied Biosystems, Foster City, Calif.) was used for real-time PCR analysis. The relative differences in expression between groups were expressed using cycle time (Ct) values and the relative differences between groups were expressed as relative increases setting the control as 100%. Assuming that the Ct value is reflective of the initial starting copy and that there is 100% efficacy, a difference of one cycle is equivalent to a two-fold difference in the starting copy.
For orientation: Quantitative PCR measures a nucleic acid by following its amplification.

Where [7] appears, read: DM 12.5 mg/kg 30 min before LPS/GalN, 1.5 and 2 hours.

As to `COc1ccc2c(c1)[C@@]13CCCC[C@H]1[C@@H](C2)N(C)CC3` [DM, d-3-methoxy-N-methylmorphinan], the “LPS-induced increase in the release of PGE2” value is listed as “significantly decreased” in assay [1] (DM 10^−5 M and 10^−14 M pretreatment); “no significant reduction” in assay [1] (DM 10^−10 M pretreatment). In addition, the “PGE2 production, post treatment” value in assay [1] (femtomolar DM after removal of LPS (20 ng/ml, 12 h), 24 h) was “reduction of NO and PGE2 production”. In addition, the “liver TNFα level” value in assay [2] (setting [7]) is “significantly decreased TNFα level”. The “serum TNFα level” value in assay [2] (setting [7]) is listed as “significantly decreased TNFα level”. Further, the TNFα level result in assay [2] (DM 30 min post LPS/GalN (data not shown)) is given as “suppression of TNFα level was also found”. Besides, the “LPS-induced TNFα production” value is recorded as “significantly reduce TNFα production” in assay [3] (PHOX+/+ mice) and “not seen” in assay [3] (PHOX−/− mice). Also, the “LPS-induced reduction of [3H]-dopamine uptake” value is listed as “significantly attenuated this decrease” in assay [4] (PHOX+/+ mice) and “failed to show any protective effect” in assay [4] (PHOX−/− mice). Also, the “Rate of survival %” value in assay [5] (DM 100 pg/kg s.c. 30 min before LPS/GalN) is on record as 76.6%; in assay [5] (DM 1 ug/kg s.c. 30 min before LPS/GalN), 58.8%; in assay [5] (DM 10 mg/kg s.c. 30 min before LPS/GalN), 84.6%. Besides, the “No. of animals survived” value in assay [5] (DM 100 pg/kg s.c., 47 animals in group) was 36; in assay [5] (DM 1 ug/kg s.c., 17 animals in group), 10; in assay [5] (DM 10 mg/kg s.c., 26 animals in group), 22. The Rate of survival in assay [5] (DM 6.25 mg/kg) was 67%; in assay [5] (DM 6.25 mg/kg, listed as Dextromethorphan) it was 66.6%; in assay [5] (DM 12.5 mg/kg) it was “about 90%”; in assay [5] (DM 12.5 mg/kg, listed as Dextromethorphan), 89.3%; in assay [5] (DM 25 mg/kg) it was “about 90%”; in assay [5] (DM 25 mg/kg, listed as Dextromethorphan), 91.6%. Moreover, the Survived animal in assay [5] (DM 6.25 mg/kg, n = 12) is listed as 8; in assay [5] (DM 12.5 mg/kg, n = 56) it was 50; in assay [5] (DM 25 mg/kg, n = 12), 11. Further, in assay [5] (DM 30 min post LPS/GalN challenge), the “protection against LPS/GalN-induced lethal shock” value is reported as “also observed”.
As for `CCCC(CCC)C(=O)O` [VPA, Valproic acid], the “GDNF mRNA levels” value is “about 180%” in assay [6] (12 hours, control as 100%); around 265% in assay [6] (24 hours, control as 100%); “back to the control value” in assay [6] (48 hours).
